Some test systems named below: RXF 631; XF498; HOP-18; M19-MEL; KM-20L2; DMS-114; SNB-78; DLD-1; LXFL 529.
Common to all, as to experiment: NCI tumour cell line growth inhibition, 48 h

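All cell lines were grown in 96-well plates and treated with compound for 48 hours. Abbreviation: GI50, concentration required for 50% inhibition of growth.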 Activity calls are given as the source filed them. Rule as the data show it: active = GI50 up to about 1.1 µM and inactive = higher. Square brackets hold non-standard residues; d marks the D form. Peptide text beside a SMILES is read from it. * marks the point of attachment. ξ: configuration not given here. NMeN = CN[C@@H](CC(N)=O)C(=O)O; NMeV = CN[C@H](C(=O)O)C(C)C; ξNMeV = CNC(C(=O)O)C(C)C; Boc = CC(C)(C)OC(=O)*; ξNMeA = CNC(C)C(=O)O

Turning to `COC(=O)C1=C(C)N(NC(N)=O)C2(N)N(NC(N)=O)C(C)=C(C(=O)OC)C12C#N` (stereo not given), the GI50 with RXF 631, with XF498, in the assay on HOP-18, in the assay on M19-MEL, with KM-20L2 and with DMS-114 was > 100 µM (inactive) in each case. For the same molecule, the GI50 in the assay on SNB-78 and with DLD-1 was > 100 µM (inactive) in each case.

As for `O=c1ccn(C2(CO)C=C(CO)C(O)C2O)c(=O)[nH]1` (stereo not given), the GI50 in the assay on RXF 631, in the assay with HOP-18, in the assay on LXFL 529, in the assay with M19-MEL, in the assay on KM-20L2 and with DMS-114 was > 25.7 µM (inactive) throughout. The GI50 in the assay on SNB-78 and with DLD-1 was > 25.7 µM (inactive) in each case.

As for `COc1ccc2c([nH]c3c(O)c(-c4c(C)cc5c([nH]c6c(CC=C(C)C)c(OC)ccc65)c4O)c(C)cc32)c1CC=C(C)C` [BISMURRAYAFOLINE B], the GI50 in the assay on HOP-18, with LXFL 529, in the assay with M19-MEL, in the assay with KM-20L2, with DMS-114 and in the assay on SNB-78 was > 100 µM (inactive) each time. Moreover, the GI50 with DLD-1 was > 100 µM (inactive).

On to `CCOC(=O)C1=C(C)N(NC(=O)c2ccccc2)C2(O)CCCC12C(=O)OCC` (stereo not given), for which the GI50 in the assay on RXF 631 was > 100 µM (inactive); in the assay on XF498, 55 µM (inactive); in the assay on LXFL 529, > 100 µM (inactive); with M19-MEL, > 100 µM (inactive); in the assay with KM-20L2, > 100 µM (inactive); with DMS-114 it was > 100 µM (inactive).

Consider `N#Cc1cccc(/C=N/C23CC4CC(CC(C4)C2)C3)c1`, for which the GI50 in the assay on M19-MEL, in the assay with KM-20L2, in the assay with DMS-114 and in the assay on SNB-78 was > 100 µM (inactive) each time.

Take `O=C1C2Cc3ccccc3CN2C(=O)N1CN1CCN(CN2C(=O)C3Cc4ccccc4CN3C2=O)CC1` (stereo not given): the GI50 in the assay on RXF 631, in the assay on HOP-18, in the assay on M19-MEL, with KM-20L2, with DMS-114 and in the assay on SNB-78 was > 100 µM (inactive) throughout. Moreover, the GI50 in the assay with DLD-1 is > 100 µM (inactive).

In the case of `Cc1ccc(NS(=O)(=O)c2cc(C(C)(C)C)ccc2OCCOCCOCCOc2ccc(C(C)(C)C)cc2S(=O)(=O)Nc2ccc(C)cc2)cc1`, the GI50 with HOP-18, in the assay on M19-MEL, in the assay with DMS-114, with SNB-78 and with DLD-1 was > 100 µM (inactive) each time.

In the case of `C=C(CCCCCCCCC)CC(=O)SCCNC(=O)CCNC(=O)C(O)C(C)(C)COP(=O)(O)OP(=O)(O)OCC1OC(n2cnc3c(N)ncnc32)C(O)C1OP(=O)(O)O` (stereo not given), the GI50 in the assay on RXF 631 was 55.2 µM (inactive); in the assay with XF498, 50 µM (inactive); in the assay on HOP-18 it was 29.4 µM (inactive); in the assay with LXFL 529, 56.2 µM (inactive); in the assay with M19-MEL, 29.8 µM (inactive); with KM-20L2 it was > 100 µM (inactive). Besides, the GI50 was 55.3 µM (inactive) in the assay with DMS-114, 25.5 µM (inactive) in the assay with SNB-78 and 42.9 µM (inactive) in the assay on DLD-1.

Turning to `NC(=O)N/N=C(\C(=O)C(=O)Nc1ccc(Cl)c(C(F)(F)F)c1)c1nc2ccc(C(=O)c3ccccc3)cc2nc1O`, the GI50 with XF498 was 9.62 µM (inactive); in the assay on HOP-18, 23.7 µM (inactive); in the assay on M19-MEL it was > 100 µM (inactive); with KM-20L2 it was > 100 µM (inactive); in the assay with DMS-114, 68.4 µM (inactive); with SNB-78, 76.6 µM (inactive).

Consider `C1CCN(C2OC3C(COC3N3CCCCC3)OC2OC2CCO[C@@H]2N2CCCCC2)CC1` (stereo not given in full), for which the GI50 with XF498 is 15.8 µM (inactive); with LXFL 529 it was 17.3 µM (inactive); with KM-20L2 it was > 100 µM (inactive); with DMS-114, 14.3 µM (inactive); in the assay with SNB-78 it was 8.26 µM (inactive); in the assay with DLD-1, 38.8 µM (inactive).

As for `CC1=NN(C(=O)Cc2ccccc2)C(=O)/C1=C\C=C\c1ccccc1`, the GI50 in the assay on XF498 is > 100 µM (inactive); in the assay on HOP-18, 14.8 µM (inactive); in the assay with SNB-78, 83.6 µM (inactive); in the assay on DLD-1, > 100 µM (inactive).

For the molecule `CC1CN(C(=O)CN2CCC(CCCCN(C)C)CC2)c2ccccc2NC1=O` (stereo not given), the GI50 in the assay on RXF 631, in the assay on HOP-18, in the assay on LXFL 529, in the assay on M19-MEL, in the assay on KM-20L2 and with DMS-114 was > 100 µM (inactive) in each case. Moreover, in the assay with DLD-1, the GI50 was > 100 µM (inactive).

As for `COC1=CC23C=CC1[C@@H](c1ccccc1)C2=C(C)C(=O)N3C(=O)NC1CCCCC1` (stereo not given in full), the GI50 with KM-20L2 was 22.2 µM (inactive); with SNB-78, 26.4 µM (inactive).

Consider `O=C1C=C(Nc2ccccc2C(=O)CC(=O)C(=O)Nc2ccc(Cl)c(Cl)c2)c2ccccc2C1=O`, for which the GI50 with M19-MEL was 3.98 µM (inactive); in the assay on DMS-114, 18.2 µM (inactive); with SNB-78, 5.31 µM (inactive); in the assay with DLD-1 it was 19.7 µM (inactive).

On to `CC1CC(c2ccc([N+](=O)[O-])cc2)=Nc2ccccc2S1` (stereo not given), for which the GI50 was 31.6 µM (inactive) with XF498; > 100 µM (inactive) with HOP-18; 13.3 µM (inactive) with LXFL 529; 13.8 µM (inactive) with M19-MEL; 18.4 µM (inactive) in the assay on KM-20L2; 17.4 µM (inactive) in the assay with DMS-114. Besides, the GI50 with SNB-78 is 67.5 µM (inactive); with DLD-1 it was 12.9 µM (inactive).

Consider `Nc1ncnc2c1ncn2CC(O)CO` (stereo not given), for which the GI50 in the assay on RXF 631, in the assay on HOP-18, in the assay on LXFL 529, with M19-MEL, with DMS-114 and with SNB-78 was > 100 µM (inactive) each time. Moreover, the GI50 in the assay on DLD-1 is > 100 µM (inactive).

Take `CCOC(=O)C(NC(=O)c1nc[nH]c1/N=N/N(C)C)C(C)C` (stereo not given): the GI50 in the assay on LXFL 529, in the assay on M19-MEL, in the assay with DMS-114 and in the assay with DLD-1 was > 100 µM (inactive) each time.

On to `CON1C(=O)C2(CCCCC2)C(=O)C12C=CC(C)CC2` (stereo not given), for which the GI50 is > 100 µM (inactive) with RXF 631; > 100 µM (inactive) in the assay with XF498; > 100 µM (inactive) with LXFL 529; > 100 µM (inactive) with M19-MEL; > 100 µM (inactive) in the assay on KM-20L2; 46.7 µM (inactive) in the assay on DMS-114. The GI50 in the assay on SNB-78 was > 100 µM (inactive).

Consider `COC12CC(O)=C(C(C)=O)C(=O)C1(C)c1c(OC(C)=O)c(C)c(O)c(C(C)=O)c1O2` (stereo not given), for which the GI50 in the assay on RXF 631 is 21.2 µM (inactive); with XF498, 14.8 µM (inactive); in the assay on HOP-18 it was 5.11 µM (inactive); in the assay on LXFL 529 it was 14.3 µM (inactive); with M19-MEL it was 23.2 µM (inactive); in the assay on KM-20L2, 16.7 µM (inactive). The GI50 in the assay on DMS-114 was 21.3 µM (inactive); in the assay with SNB-78, 27.7 µM (inactive).

`CN(C)C(=C1C(Br)=C(Br)C(Br)=C1Br)N(C)C`: the GI50 in the assay with HOP-18 is > 100 µM (inactive); in the assay on LXFL 529, 75 µM (inactive); with M19-MEL, > 100 µM (inactive); with KM-20L2, > 100 µM (inactive); with DMS-114 it was > 100 µM (inactive); in the assay on DLD-1, > 100 µM (inactive).

In the case of `CC1(C)CCc2cc3c(cc2O1)OC(C)(C)C1c2c(ccc4c2CCC(C)(C)O4)OC31` (stereo not given), the GI50 with XF498 was > 100 µM (inactive); with HOP-18, < 0.01 µM (active); with LXFL 529, > 100 µM (inactive); with M19-MEL, > 100 µM (inactive); in the assay on DMS-114 it was 98.4 µM (inactive); with SNB-78, > 100 µM (inactive). Besides, the GI50 in the assay on DLD-1 was > 100 µM (inactive).

Take `CCCCCCCCCCCC(=O)OCC1OC(n2cc(F)c(=O)[nH]c2=O)C(N)C(O)C1O` (stereo not given): the GI50 in the assay on HOP-18 is 88.9 µM (inactive); in the assay with LXFL 529, > 100 µM (inactive); in the assay on M19-MEL it was > 100 µM (inactive); in the assay with KM-20L2, 91.4 µM (inactive); with DMS-114, > 100 µM (inactive); with SNB-78 it was > 100 µM (inactive). In the assay with DLD-1, the GI50 is 71.8 µM (inactive).

Consider `COC(=O)C(C)N(C)C(=O)[C@H](CC(N)=O)N(C)C(=O)[C@@H]1CCCN1C(=O)[C@H](C(C)C)N(C)C(=O)C(C(C)C)N(C)C(=O)[C@@H](NC(=O)OC(C)(C)C)C(C)C` (stereo not given in full) (Boc-V[ξNMeV][NMeV]P[NMeN][ξNMeA]-OMe), for which the GI50 with XF498, in the assay on HOP-18, with LXFL 529, in the assay on M19-MEL, in the assay on KM-20L2 and with SNB-78 was > 100 µM (inactive) throughout. The GI50 in the assay with DLD-1 was 37 µM (inactive).

With `CCOC(=O)c1cnc2oc(-c3ccc(OC)cc3)nn2c1=O`, the GI50 with LXFL 529, with M19-MEL, in the assay with KM-20L2, with DMS-114 and in the assay on SNB-78 was > 100 µM (inactive) each time.

`c1cc2c(cnc3cscc32)s1`: the GI50 in the assay on RXF 631 is > 100 µM (inactive); with XF498 it was 11 µM (inactive); with M19-MEL it was > 100 µM (inactive); in the assay with DMS-114, > 100 µM (inactive); in the assay on SNB-78 it was > 100 µM (inactive); in the assay with DLD-1, > 100 µM (inactive).

`C1=CC=C2NCCOCC/N=C3/C=CC=CC=C3NCCOCC/N=C\2C=C1`: the GI50 with RXF 631 was 30 µM (inactive); in the assay with HOP-18 it was > 100 µM (inactive); with LXFL 529 it was 40.1 µM (inactive); with M19-MEL, > 100 µM (inactive); in the assay on KM-20L2 it was 21.6 µM (inactive); with DMS-114 it was 46.6 µM (inactive). Also, the GI50 in the assay on SNB-78 and in the assay on DLD-1 was > 100 µM (inactive) throughout.

`O=C(O)CP(=S)(S)c1ccccc1` (stereo not given): the GI50 with XF498 is > 100 µM (inactive); in the assay on LXFL 529, > 100 µM (inactive); in the assay on M19-MEL it was > 100 µM (inactive); with KM-20L2, > 10 µM (inactive); in the assay with DMS-114, > 100 µM (inactive); in the assay on SNB-78, > 100 µM (inactive). For the same molecule, the GI50 with DLD-1 was > 100 µM (inactive).

These data come from ChEMBL document CHEMBL1201862, “PubChem BioAssay data set” (2004).
